In US20240109917A1 (ACTELION PHARMACEUTICALS LTD, priority 2020, published 2024):

Target: VEGFR2, unphosphorylated (Homo sapiens (Human), UniProt P35968)
Experiment: VEGFR ADP GLO Assay
Format: biochemical

VEGFR2, unphosphorylated, sequence (P35968 20-1356): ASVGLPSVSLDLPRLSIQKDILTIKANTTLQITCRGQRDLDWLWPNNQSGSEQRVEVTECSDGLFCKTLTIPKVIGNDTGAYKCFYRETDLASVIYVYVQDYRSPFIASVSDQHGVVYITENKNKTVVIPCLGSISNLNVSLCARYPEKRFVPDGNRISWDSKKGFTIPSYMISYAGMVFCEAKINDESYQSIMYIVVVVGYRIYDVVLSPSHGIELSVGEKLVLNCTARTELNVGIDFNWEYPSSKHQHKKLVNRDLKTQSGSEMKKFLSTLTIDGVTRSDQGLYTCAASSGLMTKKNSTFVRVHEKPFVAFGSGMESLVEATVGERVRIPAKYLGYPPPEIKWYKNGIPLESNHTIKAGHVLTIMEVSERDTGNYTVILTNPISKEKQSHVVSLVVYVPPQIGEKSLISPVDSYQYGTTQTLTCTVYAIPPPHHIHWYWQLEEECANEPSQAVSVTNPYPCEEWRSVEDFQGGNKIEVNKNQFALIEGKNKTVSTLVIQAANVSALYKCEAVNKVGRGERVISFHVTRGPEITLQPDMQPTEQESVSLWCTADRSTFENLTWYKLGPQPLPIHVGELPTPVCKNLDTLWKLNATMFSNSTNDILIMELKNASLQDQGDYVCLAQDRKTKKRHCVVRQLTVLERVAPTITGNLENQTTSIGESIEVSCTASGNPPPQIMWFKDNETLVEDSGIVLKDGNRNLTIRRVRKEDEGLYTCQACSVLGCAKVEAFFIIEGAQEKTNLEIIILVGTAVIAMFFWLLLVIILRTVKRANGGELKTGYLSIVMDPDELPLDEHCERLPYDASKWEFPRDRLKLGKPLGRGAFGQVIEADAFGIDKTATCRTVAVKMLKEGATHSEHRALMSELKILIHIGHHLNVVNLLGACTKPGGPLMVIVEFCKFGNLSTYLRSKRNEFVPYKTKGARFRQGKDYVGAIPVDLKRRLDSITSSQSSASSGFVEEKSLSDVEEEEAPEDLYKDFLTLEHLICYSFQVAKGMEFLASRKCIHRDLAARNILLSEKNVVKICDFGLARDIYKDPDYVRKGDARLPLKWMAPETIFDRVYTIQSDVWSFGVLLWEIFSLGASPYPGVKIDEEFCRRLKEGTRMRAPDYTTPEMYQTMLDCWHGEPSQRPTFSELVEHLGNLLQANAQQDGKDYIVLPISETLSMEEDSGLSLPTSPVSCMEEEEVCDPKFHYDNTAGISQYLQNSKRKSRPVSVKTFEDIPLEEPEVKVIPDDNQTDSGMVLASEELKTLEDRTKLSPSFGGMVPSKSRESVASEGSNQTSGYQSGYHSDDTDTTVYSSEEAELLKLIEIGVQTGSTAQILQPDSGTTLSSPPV

Structure (SMILES)	IC50 [µM]
Cc1ncc(NC(=O)CN2CCC3(CCCO3)C2)cc1NC(=O)c1cnn2cc(-c3cnn(C)c3)sc12 (centres unmarked) [Example 21, N-(5-(2-(1-oxa-7-azaspiro[4.4]nonan-7-yl)acetamido)-2-methylpyridin-3-yl)-2-(1-methyl-1H-pyrazol-4-yl)pyrazolo[5,1-b]thiazole-7-carboxamide]	> 7.5
COc1ncccc1-c1cn2ncc(C(=O)Nc3cc(NC(=O)CN4CCCC4)cnc3C)c2s1 [Example 313, 2-(2-methoxypyridin-3-yl)-N-(2-methyl-5-(2-(pyrrolidin-1-yl)acetamido)pyridin-3-yl)pyrazolo[5,1-b]thiazole-7-carboxamide]	> 7.5
COc1ncccc1-c1cn2ncc(C(=O)Nc3cc(C(=O)NCCN4CCC[C@@H]4C)cnc3C)c2s1 [Example 301, (S)-2-(2-methoxypyridin-3-yl)-N-(2-methyl-5-((2-(2-methylpyrrolidin-1-yl)ethyl)carbamoyl)pyridin-3-yl)pyrazolo[5,1-b]thiazole-7-carboxamide]	> 7.5
Cc1ncc(NC(=O)CN2CC(C)(C)C2)cc1NC(=O)c1cnn2cc(-c3cnn(CCO)c3)sc12 [Example 290, N-(5-(2-(3,3-dimethylazetidin-1-yl)acetamido)-2-methylpyridin-3-yl)-2-(1-(2-hydroxyethyl)-1H-pyrazol-4-yl)pyrazolo[5,1-b]thiazole-7-carboxamide]	> 7.5
Cc1ncc(NC(=O)CN2CCc3ccncc3C2)cc1NC(=O)c1cnn2cc(-c3cnn(C)c3)sc12 [Example 23, N-(5-(2-(3,4-dihydro-2,7-naphthyridin-2 (1H)-yl)acetamido)-2-methylpyridin-3-yl)-2-(1-methyl-1H-pyrazol-4-yl)pyrazolo[5,1-b]thiazole-7-carboxamide]	> 7.5
Cc1ncc(NC(=O)CN(C)C2CCOCC2)cc1NC(=O)c1cnn2cc(-c3cnn(C4CC4)c3)sc12 [Example 294, 2-(1-cyclopropyl-1H-pyrazol-4-yl)-N-(2-methyl-5-(2-(methyl(tetrahydro-2H-pyran-4-yl)amino)acetamido)pyridin-3-yl)pyrazolo[5,1-b]thiazole-7-carboxamide]	> 7.5
Cc1ncc(NC(=O)CN2CCCC(O)C2)cc1NC(=O)c1cnn2cc(-c3cnn(C)c3)sc12 (centres unmarked) [Example 303, N-(5-(2-(3-hydroxypiperidin-1-yl)acetamido)-2-methylpyridin-3-yl)-2-(1-methyl-1H-pyrazol-4-yl)pyrazolo[5,1-b]thiazole-7-carboxamide]	> 7.5
CNC(=O)Cn1cc(-c2cn3ncc(C(=O)Nc4cc(NC(=O)CN5CC(C)(C)C5)cnc4C)c3s2)cn1 [Example 279, N-(5-(2-(3,3-dimethylazetidin-1-yl)acetamido)-2-methylpyridin-3-yl)-2-(1-(2-(methylamino)-2-oxoethyl)-1H-pyrazol-4-yl)pyrazolo[5,1-b]thiazole-7-carboxamide]	> 7.5
Cc1ncc(NC(=O)[C@@H]2CCCN3CCCC[C@H]23)cc1NC(=O)c1cnn2cc(-c3cnn(C)c3)sc12 [Example 308, 2-(1-methyl-1H-pyrazol-4-yl)-N-(2-methyl-5-((1R,9aR)-octahydro-2H-quinolizine-1-carboxamido)pyridin-3-yl)pyrazolo[5,1-b]thiazole-7-carboxamide]	> 7.5
Cc1ncc(NC(=O)OC[C@@H]2CCCN2C)cc1NC(=O)c1cnn2cc(-c3cccc4c3cnn4C)sc12 [Example 257, (S)-(1-methylpyrrolidin-2-yl)methyl (6-methyl-5-(2-(1-methyl-1H-indazol-4-yl)pyrazolo[5,1-b]thiazole-7-carboxamido)pyridin-3-yl)carbamate]	> 2.5
Cc1ncc(NC(=O)CN(C)C2CCOCC2)cc1NC(=O)c1cnn2cc(-c3cnn(CC#N)c3)sc12 [Example 299, 2-(1-(cyanomethyl)-1H-pyrazol-4-yl)-N-(2-methyl-5-(2-(methyl(tetrahydro-2H-pyran-4-yl)amino)acetamido)pyridin-3-yl)pyrazolo[5,1-b]thiazole-7-carboxamide]	> 7.5
Cc1ncc(NC(=O)CN2CCCC3(COC3)C2)cc1NC(=O)c1cnn2cc(-c3cnn(C)c3)sc12 [Example 24, N-(5-(2-(2-oxa-6-azaspiro[3.5]nonan-6-yl)acetamido)-2-methylpyridin-3-yl)-2-(1-methyl-1H-pyrazol-4-yl)pyrazolo[5,1-b]thiazole-7-carboxamide]	> 7.5
Cc1ncc(NC(=O)CN2CCCC2(C)C)cc1NC(=O)c1cnn2cc(-n3ncc4cccnc43)sc12 [Example 259, N-(5-(2-(2,2-dimethylpyrrolidin-1-yl)acetamido)-2-methylpyridin-3-yl)-2-(1H-pyrazolo[3,4-b]pyridin-1-yl)pyrazolo[5,1-b]thiazole-7-carboxamide]	> 7.5
COc1ncccc1-c1cn2ncc(C(=O)Nc3cc(NC(=O)OCCN4CCCC4(C)C)cnc3C)c2s1 [Example 254, 2-(2,2-dimethylpyrrolidin-1-yl)ethyl (5-(2-(2-methoxypyridin-3-yl)pyrazolo[5,1-b]thiazole-7-carboxamido)-6-methylpyridin-3-yl)carbamate]	> 7.5
Cc1ncc(NC(=O)CN2CCCC23COC3)cc1NC(=O)c1cnn2cc(-c3cnn(C)c3)sc12 [Example 20, N-(5-(2-(2-oxa-5-azaspiro[3.4]octan-5-yl)acetamido)-2-methyl-pyridin-3-yl)-2-(1-methyl-1H-pyrazol-4-yl)pyrazolo[5,1-b]thiazole-7-carboxamide]	> 7.5
Cc1ncc(NC(=O)CN2CC(C)(C)C2)cc1NC(=O)c1cnn2cc(-c3cnn(CS(C)(=O)=O)c3)sc12 [Example 265, N-(5-(2-(3,3-dimethylazetidin-1-yl)acetamido)-2-methylpyridin-3-yl)-2-(1-((methylsulfonyl)methyl)-1H-pyrazol-4-yl)pyrazolo[5,1-b]thiazole-7-carboxamide]	> 7.5
Cc1ncc(NC(=O)CN2CC(C)(C)C2)cc1NC(=O)c1cnn2cc(-c3cc[nH]c3)sc12 [Example 285, N-(5-(2-(3,3-dimethylazetidin-1-yl)acetamido)-2-methylpyridin-3-yl)-2-(1H-pyrrol-3-yl)pyrazolo[5,1-b]thiazole-7-carboxamide]	> 7.5
Cc1ncc(NC(=O)CN2CC(C)(C)C2)cc1NC(=O)c1cnn2cc(-c3ccn(S(C)(=O)=O)c3)sc12 [Example 275, N-(5-(2-(3,3-dimethylazetidin-1-yl)acetamido)-2-methylpyridin-3-yl)-2-(1-(methylsulfonyl)-1H-pyrrol-3-yl)pyrazolo[5,1-b]thiazole-7-carboxamide]	> 7.5
Cc1ncc(NC(=O)OC[C@@H]2CCCN2C)cc1NC(=O)c1cnn2cc(-c3cc[nH]c3)sc12 [Example 258, (S)-(1-methylpyrrolidin-2-yl)methyl (5-(2-(1H-pyrrol-3-yl)pyrazolo[5,1-b]thiazole-7-carboxamido)-6-methylpyridin-3-yl)carbamate]	> 7.5
COc1ncccc1-c1cn2ncc(C(=O)Nc3cc(NC(=O)CN4CCO[C@H](C)C4)cnc3C)c2s1 [Example 318, (R)-2-(2-methoxypyridin-3-yl)-N-(2-methyl-5-(2-(2-methylmorpholino)acetamido)pyridin-3-yl)pyrazolo[5,1-b]thiazole-7-carboxamide]	> 7.5
COc1ncccc1-c1cn2ncc(C(=O)Nc3cc(NC(=O)C4CCCCN4C(C)C)cnc3C)c2s1 (centres unmarked) [Example 315, N-(5-(1-isopropylpiperidine-2-carboxamido)-2-methylpyridin-3-yl)-2-(2-methoxypyridin-3-yl)pyrazolo[5,1-b]thiazole-7-carboxamide]	4.99
Cc1ncc(NC(=O)OC[C@@H]2CCCN2C)cc1NC(=O)c1cnn2cc(-c3cccnc3O)sc12 [Example 256, (S)-(1-methylpyrrolidin-2-yl)methyl (5-(2-(2-hydroxypyridin-3-yl)pyrazolo[5,1-b]thiazole-7-carboxamido)-6-methylpyridin-3-yl)carbamate]	> 7.5
Cc1ncc(NC(=O)C[C@@H]2CCCCN2C(C)C)cc1NC(=O)c1cnn2cc(-c3cnn(C)c3)sc12 [Example 305, (S)—N-(5-(2-(1-isopropylpiperidin-2-yl)acetamido)-2-methylpyridin-3-yl)-2-(1-methyl-1H-pyrazol-4-yl)pyrazolo[5,1-b]thiazole-7-carboxamide]	> 7.5
Cc1ncc(NC(=O)CN2CCCC2)cc1NC(=O)c1cnn2cc(-c3cccnc3O)sc12 [Example 312, 2-(2-hydroxypyridin-3-yl)-N-(2-methyl-5-(2-(pyrrolidin-1-yl)acetamido)pyridin-3-yl)pyrazolo[5,1-b]thiazole-7-carboxamide]	> 7.5
Cc1ncc(NC(=O)CCN2CCCC2(C)C)cc1NC(=O)c1cnn2cc(-n3ncc4cccnc43)sc12 [Example 260, N-(5-(3-(2,2-dimethylpyrrolidin-1-yl)propanamido)-2-methylpyridin-3-yl)-2-(1H-pyrazolo[3,4-b]pyridin-1-yl)pyrazolo[5,1-b]thiazole-7-carboxamide]	> 7.5
Cc1ncc(NC(=O)CN2CC(C)(C)C2)cc1NC(=O)c1cnn2cc(-c3cnn(CC4CC4)c3)sc12 [Example 270, 2-(1-(cyclopropylmethyl)-1H-pyrazol-4-yl)-N-(5-(2-(3,3-dimethylazetidin-1-yl)acetamido)-2-methylpyridin-3-yl)pyrazolo[5,1-b]thiazole-7-carboxamide]	> 7.5
COc1ncccc1-c1cn2ncc(C(=O)Nc3cc(NC(=O)OCC(C)N4CCCC4)cnc3C)c2s1 (centres unmarked) [Example 255, 2-(pyrrolidin-1-yl)propyl (5-(2-(2-methoxypyridin-3-yl)pyrazolo[5,1-b]thiazole-7-carboxamido)-6-methylpyridin-3-yl)carbamate]	> 7.5
COc1ncccc1-c1cn2ncc(C(=O)Nc3cc(NC(=O)C[C@H]4CCCN4C(C)C)cnc3C)c2s1 [Example 309, (R)—N-(5-(2-(1-isopropylpyrrolidin-2-yl)acetamido)-2-methylpyridin-3-yl)-2-(2-methoxypyridin-3-yl)pyrazolo[5,1-b]thiazole-7-carboxamide]	> 7.5
Cc1ncc(NC(=O)C[C@@H]2CCCN2C(C)C)cc1NC(=O)c1cnn2cc(-c3cccnc3O)sc12 [Example 322, (S)-2-(2-hydroxypyridin-3-yl)-N-(5-(2-(1-isopropylpyrrolidin-2-yl)acetamido)-2-methylpyridin-3-yl)pyrazolo[5,1-b]thiazole-7-carboxamide]	> 7.5
